From article PMC10914731, “Homo-BacPROTAC-induced degradation of ClpC1 as a strategy against drug-resistant mycobacteria” (Nature Communications, 2024)
Where “and” joins values, the source holds several entries; their conditions need not be identical. Equal entries are not always repeated. Where two headings read alike, the source gives them in different places. *1 amine or outer side, *2 acyl side, *3 side chain or, on linkers, in order; H or OH if unused. Where a SMILES comes first, the peptide text is derived from it. Bridges are numbered along the chain shown (N, C = ends). Roman numbers before positions name the chains, in order. [ ]: non-standard residue; d: D form. ξ: configuration not given here. X10 = CN([C@@H](Cc1cn(CC=[*:3])c2ccccc12)C(=O)[*:2])[*:1]; X3 = C#CCOc1ccc([C@@H](OC)[C@H](N[*:1])C(=O)[*:2])cc1; NMeLeu(5-OH,4R) = CN[C@@H](C[C@@H](C)CO)C(=O)O; Phe(βR-OMe) = CO[C@H](c1ccccc1)[C@H](N)C(=O)O; ξNMeTrp(1-Me) = CNC(Cc1cn(C)c2ccccc12)C(=O)O; X8 = CC(CO)C[C@@H](C(=O)[*:2])N(C)[*:1]; NMeL = CN[C@@H](CC(C)C)C(=O)O; ξV = CC(C)C(N)C(=O)O

How the values were obtained:
[1] = biological target: ClpC1 NTD protein (M. tuberculosis) (Mycobacterium tuberculosis, UniProt P9WPC9); assay: biochemical; type: binding
ClpC1 NTD protein (M. tuberculosis), sequence (P9WPC9 1-156, looked up, natural form): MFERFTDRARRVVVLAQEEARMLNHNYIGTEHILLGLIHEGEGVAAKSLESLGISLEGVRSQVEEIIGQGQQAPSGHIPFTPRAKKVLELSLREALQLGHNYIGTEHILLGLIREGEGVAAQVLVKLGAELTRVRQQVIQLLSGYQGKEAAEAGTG

in vitro = conditions: human; for Papp A→B: apical to basolateral; for Papp B→A: basolateral to apical
From the text: (§1) Supplementary Table 1. Structure-Activity Relationships part 1 (SPR, Caco-2) […]
(§2) SPR. Mean values ± standard deviation. Footnotes indicate the number of measurements performed for the respective compound: a) n = […]
(§3) [5] Permeability across Caco-2 monolayers in P(A−B): apical to basolateral and P(B−A): basolateral to apical direction (values reported in 10-
(§4) 6 cm s-1); efflux ratio = P(B−A)/P(A−B); Int. perm: mean value of P(A−B) and P(B−A). […] Influence of Trp-Nα methylation on P(A-B) and efflux
(§5) ratio. Bold: positive influence.

Caco-2 monolayers = assay: in vitro
From the text: as §1, §2, §3, §4, §5

[2] = Hepatocyte stability, mice; type: in vitro ADME; conditions: for Hepatocyte Mice: clearance in hepatocytes
Description: (§6) Cryopreserved hepatocytes are incubated in an appropriate buffer system containing 50% species serum. Following an acclimation period (15–30 min) in an incubator (37 °C, 5−10% CO2, 85–95% humidity) the test compound is added to the hepatocyte suspension (pH 7.4, typical cell density of about 1 million cells/mL; final concentration of test compound is 1 µM, final DMSO concentration <0.05% v/v). The cells are incubated for up to 6 h and samples are taken at 6 different time points. Samples are then quenched with acetonitrile and pelleted by centrifugation. The remaining amount of parent compound in the supernatants is then analysed by HPLC-MS/MS. Clearance is calculated from compound half-lives using the well-stirred liver model and is converted to clearance stated as % of the liver blood flow (% Qh).

[3] = type: in vitro ADME, Rat
Description: as §6

[4] = type: in vitro ADME, Human; conditions: for Hepatocyte Human: clearance in hepatocytes
Description: as §6

[5] = biological target: His6-tagged ClpC1-NTD substrate, M. smegmatis ClpC1P1P2 (UniProt A0R574+P9WPC9); assay: biochemical; type: biochemical
His6-tagged ClpC1-NTD substrate, M. smegmatis ClpC1P1P2, sequence (P9WPC9 1-156, looked up, natural form): as above
His6-tagged ClpC1-NTD substrate, M. smegmatis ClpC1P1P2, sequence (A0R574 whole entry): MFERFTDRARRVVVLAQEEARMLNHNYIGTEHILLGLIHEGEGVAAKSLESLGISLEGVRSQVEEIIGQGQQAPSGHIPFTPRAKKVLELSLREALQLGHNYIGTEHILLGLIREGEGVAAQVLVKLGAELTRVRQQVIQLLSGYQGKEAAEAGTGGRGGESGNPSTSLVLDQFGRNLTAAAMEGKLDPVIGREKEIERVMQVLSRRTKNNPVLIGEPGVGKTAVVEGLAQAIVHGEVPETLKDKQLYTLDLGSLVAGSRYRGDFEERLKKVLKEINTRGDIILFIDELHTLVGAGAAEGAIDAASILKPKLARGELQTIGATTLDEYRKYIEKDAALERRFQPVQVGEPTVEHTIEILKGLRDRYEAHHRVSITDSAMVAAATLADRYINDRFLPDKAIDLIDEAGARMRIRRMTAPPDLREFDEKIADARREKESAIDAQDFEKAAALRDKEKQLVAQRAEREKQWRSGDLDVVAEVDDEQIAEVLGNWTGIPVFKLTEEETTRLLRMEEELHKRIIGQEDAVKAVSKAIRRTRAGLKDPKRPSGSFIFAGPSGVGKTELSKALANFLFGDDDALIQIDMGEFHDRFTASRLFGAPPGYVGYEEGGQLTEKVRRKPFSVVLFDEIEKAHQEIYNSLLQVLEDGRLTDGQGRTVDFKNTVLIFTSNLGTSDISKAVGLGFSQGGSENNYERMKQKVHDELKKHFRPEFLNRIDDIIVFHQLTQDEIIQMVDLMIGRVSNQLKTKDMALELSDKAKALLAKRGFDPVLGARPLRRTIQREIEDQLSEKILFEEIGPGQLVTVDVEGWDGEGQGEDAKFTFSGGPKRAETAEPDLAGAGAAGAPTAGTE

[6] = biological target: ClpC1-NTD substrate, M. tuberculosis ClpC1P1P2 (Mycobacterium tuberculosis, UniProt P9WPC9); assay: biochemical; type: biochemical
ClpC1-NTD substrate, M. tuberculosis ClpC1P1P2, sequence (P9WPC5 whole entry): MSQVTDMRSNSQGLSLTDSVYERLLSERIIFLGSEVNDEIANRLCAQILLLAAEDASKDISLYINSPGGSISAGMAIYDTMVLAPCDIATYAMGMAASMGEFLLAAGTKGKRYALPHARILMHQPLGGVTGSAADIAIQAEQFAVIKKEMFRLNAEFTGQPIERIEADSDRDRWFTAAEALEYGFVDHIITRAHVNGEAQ
ClpC1-NTD substrate, M. tuberculosis ClpC1P1P2, sequence (P9WPC9 whole entry): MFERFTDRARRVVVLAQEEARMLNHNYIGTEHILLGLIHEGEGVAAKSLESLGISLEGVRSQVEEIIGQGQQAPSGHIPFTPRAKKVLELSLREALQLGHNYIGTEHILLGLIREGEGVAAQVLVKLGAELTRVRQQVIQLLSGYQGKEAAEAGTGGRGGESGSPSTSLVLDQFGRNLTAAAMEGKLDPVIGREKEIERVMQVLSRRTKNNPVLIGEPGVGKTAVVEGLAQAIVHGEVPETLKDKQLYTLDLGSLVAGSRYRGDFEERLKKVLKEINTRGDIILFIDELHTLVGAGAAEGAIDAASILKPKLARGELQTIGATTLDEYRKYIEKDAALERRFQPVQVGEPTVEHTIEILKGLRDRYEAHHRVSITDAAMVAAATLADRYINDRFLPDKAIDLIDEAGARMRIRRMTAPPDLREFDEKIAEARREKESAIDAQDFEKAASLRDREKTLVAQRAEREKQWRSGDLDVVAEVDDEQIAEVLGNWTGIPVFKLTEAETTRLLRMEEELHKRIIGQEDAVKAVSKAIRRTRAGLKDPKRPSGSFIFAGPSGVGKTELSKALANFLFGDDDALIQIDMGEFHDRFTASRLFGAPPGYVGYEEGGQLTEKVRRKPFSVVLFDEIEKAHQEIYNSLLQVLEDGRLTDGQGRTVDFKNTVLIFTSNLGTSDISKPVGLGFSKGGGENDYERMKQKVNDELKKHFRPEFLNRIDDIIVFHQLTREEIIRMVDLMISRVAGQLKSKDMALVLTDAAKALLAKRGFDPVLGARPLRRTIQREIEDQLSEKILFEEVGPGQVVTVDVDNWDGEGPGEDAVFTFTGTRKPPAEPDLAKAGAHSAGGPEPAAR
ClpC1-NTD substrate, M. tuberculosis ClpC1P1P2, sequence (P9WPC3 whole entry, further chain): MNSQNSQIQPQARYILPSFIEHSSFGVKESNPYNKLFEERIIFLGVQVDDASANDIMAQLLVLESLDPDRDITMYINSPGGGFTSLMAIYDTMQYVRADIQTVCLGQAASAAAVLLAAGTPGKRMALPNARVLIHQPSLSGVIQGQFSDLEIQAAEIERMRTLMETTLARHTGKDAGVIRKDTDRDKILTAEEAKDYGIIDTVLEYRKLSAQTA

[7] = Caco-2, Caco-2 permeability P (A-B)
[8] = mean value of P(A−B) and P(B−A)
[9] = read-out: KD ClpC1-NTD Mean ± SD
[10] = read-out: DC50, single measurements
[11] = SPR (Supplementary Table 1), read-out: KD ClpC1-NTD Mean ± SD
[12] = SPR, single independent measurements, read-out: KD ClpC1-NTD

CCCCCn1cc(C[C@@H]2NC(=O)[C@H](CC(C)C)N(C)C(=O)[C@H](C(C)C)NC(=O)[C@H]([C@H](OC)c3ccccc3)NC(=O)[C@H](C)NC(=O)[C@H](C[C@@H](C)CO)N(C)C(=O)[C@H](Cc3cn(C)c4ccccc34)NC2=O)nn1 [Compound 24]
Kd ([1]; SPR, individual measurements (source data), read-out: KD ClpC1-NTD): 4.68 nM and 4.44 nM
Kd ([1]; SPR, read-out: ClpC1-NTD KD Mean ± SD): 4.6 ± 0.2 nM
Papp A→B (in vitro; Caco-2, CACO permeability PEAB): < 0.27 ×10⁻⁶ cm/s
Papp B→A (in vitro; Caco-2, CACO permeability PEBA): 13 ×10⁻⁶ cm/s
Papp A→B (in vitro; [7]): < 0.3 ×10⁻⁶ cm/s
CACO permeability PEBA (Caco-2 monolayers; basolateral to apical): 0.000011 cm/s
Caco-2 Int. Perm (Caco-2 monolayers; [8]): 5.6 10-6 cm s-1
Hepatocyte Stability Mouse QH ([2]; Mouse): 35.166%
Hepatocyte Mice [2]: 35 %Qh
Hepatocyte Stability Rat QH ([3]; Rat): 33.303%
Hepatocyte Rat ([3]; clearance in hepatocytes): 33 %Qh
Hepatocyte Stability Human QH ([4]; Human): 17.172%

CO[C@H](c1ccccc1)[C@@H]1NC(=O)[C@H](C)NC(=O)[C@H](C[C@@H](C)CO)N(C)C(=O)[C@H](Cc2cn(C/C=C/Cn3cc(C[C@H]4C(=O)N(C)[C@@H](C[C@@H](C)CO)C(=O)N[C@@H](C)C(=O)N[C@@H]([C@H](OC)c5ccccc5)C(=O)N[C@@H](C(C)C)C(=O)N(C)[C@@H](CC(C)C)C(=O)N[C@@H](C(C)C)C(=O)N4C)c4ccccc43)c3ccccc23)N(C)C(=O)[C@H](C(C)C)NC(=O)[C@H](CC(C)C)N(C)C(=O)[C@H](C(C)C)NC1=O [Compound 28] (I: cyclo(A[Phe(βR-OMe)]V[NMeL]V[X10][NMeLeu(5-OH,4R)]) / II: cyclo(A[Phe(βR-OMe)]V[NMeL]V[X10][NMeLeu(5-OH,4R)]); staple (E) I:6-II:6)
koff ClpC1-NTD [1]: 1E-3 1E-3 1/s
koff ClpC1-NTD Mean ± SD [1]: 0.001 ± 6e-05 s⁻¹
Kd ([1]; read-out: ClpC1-NTD KD Mean ± SD): 1.8 ± 0.1 nM
Kd ([1]; read-out: KD ClpC1-NTD): 1.73 nM and 1.92 nM
CACO permeability PEBA (Caco-2 monolayers; Caco-2): <0.00000039 cm/sec
Caco-2 Int. Perm (Caco-2 monolayers; Caco-2): 0.66 10-6 cm s-1
Caco-2 permeability P (A-B) (Caco-2 monolayers; Caco-2): 0.9 10-6 cm s-1
Caco-2 permeability P (B-A) (Caco-2 monolayers; Caco-2): < 0.4 10-6 cm s-1
Permeability Correlation P (A-B) (Caco-2 monolayers; Caco-2): 0.4
Hepatocyte Stability Mouse QH [2]: 15.001%
Hepatocyte Mice [2]: 15 %Qh
Hepatocyte Rat [3]: 6 %Qh
Hepatocyte Stability Rat QH [3]: 6.357%
Hepatocyte Stability Human QH [4]: 12.386%

CO[C@H](c1ccccc1)[C@@H]1NC(=O)[C@H](C)NC(=O)[C@H](C[C@@H](C)CO)N(C)C(=O)[C@H](Cc2cn(CCCCn3cc(C[C@H]4C(=O)N(C)[C@@H](C[C@@H](C)CO)C(=O)N[C@@H](C)C(=O)N[C@@H]([C@H](OC)c5ccccc5)C(=O)N[C@@H](C(C)C)C(=O)N(C)[C@@H](CC(C)C)C(=O)N[C@@H](C(C)C)C(=O)N4C)c4ccccc43)c3ccccc23)N(C)C(=O)[C@H](C(C)C)NC(=O)[C@H](CC(C)C)N(C)C(=O)[C@H](C(C)C)NC1=O [SI-61]
koff ClpC1-NTD [1]: 8E-4 5E-4 1/s
Kd ([1]; read-out: KD ClpC1-NTD): 0.581 nM and 0.49 nM
Kd [1, 9]: 0.54 ± 0.06 nM
CACO permeability PEAB (Caco-2 monolayers; Caco-2): <0.000 cm/sec
CACO permeability PEBA (Caco-2 monolayers; Caco-2): <0.000 cm/sec
Caco-2 Int. Perm (Caco-2 monolayers; Caco-2): 2.75 10-6 cm s-1
Caco-2 permeability P (A-B) (Caco-2 monolayers; Caco-2): < 4.2 10-6 cm s-1
Caco-2 permeability P (B-A) (Caco-2 monolayers; Caco-2): < 1.3 10-6 cm s-1
Hepatocyte Stability Mouse QH [2]: 15.001%
Hepatocyte Mice [2]: 15 %Qh
Hepatocyte Rat [3]: 6 %Qh
Hepatocyte Stability Rat QH [3]: 6.192%
Hepatocyte Stability Human QH [4]: 12.386%
1-Dmax, Mean [5]: 42%
1-Dmax, single measurements [5]: 37.4% and 43.6% and 42.4% and 44.3%
DC50 ([5]; read-out: DC50, Mean): 5300 nM
DC50 [5, 10]: 5.3 µM (2×) and 4.6 µM and 5.8 µM
1-Dmax, Mean [6]: 42%
1-Dmax, single measurements [6]: 36.8% and 46.3%
DC50 ([6]; read-out: DC50, Mean): 7200 nM
DC50 [6, 10]: 7300 nM and 7000 nM

C#CCOc1ccc([C@@H](OC)[C@@H]2NC(=O)[C@@H](C)NC(=O)[C@H](CC(C)CO)N(C)C(=O)C(Cc3cn(C)c4ccccc34)N(C)C(=O)C(C(C)C)NC(=O)[C@H](CC(C)C)N(C)C(=O)[C@@H](C(C)C)NC2=O)cc1 (stereo partly drawn) [SI-64] (cyclo([NMeL][ξV][ξNMeTrp(1-Me)][X8][dA][X3][dV]))
Kd [1, 11]: 11 ± 1 nM
Kd [1, 12]: 12.1 nM and 10.5 nM
efflux ratio (in vitro; Caco-2): 2.9
Papp A→B (in vitro; Caco-2, CACO permeability PEAB): 17 ×10⁻⁶ cm/s
Papp B→A (in vitro; Caco-2, CACO permeability PEBA): 44 ×10⁻⁶ cm/s
CACO permeability PEAB (Caco-2 monolayers; apical to basolateral): 0.000014999999999999999 cm/s
CACO permeability PEBA (Caco-2 monolayers; basolateral to apical): 0.000042999999999999995 cm/s
Permeability Correlation P (A-B) (Caco-2 monolayers; influence of Trp-Nα methylation on P(A-B), matched pair, listed under the methylated partner): > 75
Permeability Correlation Ratio (Caco-2 monolayers; influence of Trp-Nα methylation on efflux ratio, matched pair, listed under the methylated partner): > 31
Caco-2 Int. Perm (Caco-2 monolayers; [8]): 29.0 10-6 cm s-1
Hepatocyte Stability Mouse QH ([2]; Mouse): 34.335%
Hepatocyte Mice [2]: 34 %Qh
Hepatocyte Stability Rat QH ([3]; Rat): 49.748%
Hepatocyte Rat ([3]; clearance in hepatocytes): 50 %Qh
Hepatocyte Stability Human QH ([4]; Human): 21.688%
Hepatocyte Human [4]: 22 %Qh

COC(c1ccc(OCc2cn(CCOCCOCCOCCOCCn3cc(COc4ccc(C(OC)C5NC(=O)C(C)NC(=O)C(CC(C)CO)N(C)C(=O)C(Cc6cn(C)c7ccccc67)N(C)C(=O)C(C(C)C)NC(=O)C(CC(C)C)N(C)C(=O)C(C(C)C)NC5=O)cc4)nn3)nn2)cc1)C1NC(=O)C(C)NC(=O)C(CC(C)CO)N(C)C(=O)C(Cc2cn(C)c3ccccc23)N(C)C(=O)C(C(C)C)NC(=O)C(CC(C)C)N(C)C(=O)C(C(C)C)NC1=O (stereo not drawn) [SI-65]
koff ClpC1-NTD [1]: 5E-3 1E-2 1/s
Kd ([1]; read-out: KD ClpC1-NTD): 2.29 nM and 1.35 nM
Kd [1, 9]: 1.8 ± 0.7 nM
CACO permeability PEAB (Caco-2 monolayers; Caco-2): <0.0000086 cm/sec
CACO permeability PEBA (Caco-2 monolayers; Caco-2): <0.0000051 cm/sec
Caco-2 Int. Perm (Caco-2 monolayers; Caco-2): 6.9 10-6 cm s-1
Hepatocyte Stability Mouse QH [2]: 15.001%
Hepatocyte Stability Rat QH [3]: 16.284%
Hepatocyte Stability Human QH [4]: 12.386%
1-Dmax, Mean [5]: 92%
1-Dmax, single measurements [5]: 86.9% and 92.9% and 97.0%
DC50 ([5]; read-out: DC50, Mean): 5200 nM
DC50 [5, 10]: 6100 nM and 5000 nM and 4500 nM
1-Dmax, Mean [6]: 84%
1-Dmax, single measurements [6]: 84.7% and 83.2%
DC50 ([6]; read-out: DC50, Mean): 8000 nM
DC50 [6, 10]: 7000 nM and 9000 nM

CO[C@H](c1ccc(OCc2cn(CCCCCn3cc(COc4ccc([C@@H](OC)[C@@H]5NC(=O)[C@H](C)NC(=O)[C@H](C[C@@H](C)CO)N(C)C(=O)[C@H](Cc6cn(C)c7ccccc67)N(C)C(=O)[C@H](C(C)C)NC(=O)[C@H](CC(C)C)N(C)C(=O)[C@H](C(C)C)NC5=O)cc4)nn3)nn2)cc1)[C@@H]1NC(=O)[C@H](C)NC(=O)[C@H](C[C@@H](C)CO)N(C)C(=O)[C@H](Cc2cn(C)c3ccccc23)N(C)C(=O)[C@H](C(C)C)NC(=O)[C@H](CC(C)C)N(C)C(=O)[C@H](C(C)C)NC1=O [SI-66]
Kd [1, 11]: 7 ± 2 nM
koff ([1]; SPR dissociation rate constant, read-out: koff ClpC1-NTD Mean ± SD): 0.01 s⁻¹
Kd [1, 12]: 8.57 nM and 6.41 nM
Papp A→B (in vitro; [7]): < 4.8 ×10⁻⁶ cm/s
Papp B→A (in vitro; Caco-2, Caco-2 permeability P (B-A)): < 2.5 ×10⁻⁶ cm/s
Caco-2 Int. Perm (Caco-2 monolayers; [8]): 3.7 10-6 cm s-1
Hepatocyte Mice [2]: 15 %Qh
Hepatocyte Stability Rat QH ([3]; Rat): 9.964%
Hepatocyte Rat ([3]; clearance in hepatocytes): 10 %Qh
Hepatocyte Human [4]: 12 %Qh
